# Test system: xenogeneic mouse graft versus host disease (GVHD) model
# Settings: in vivo
# Protocol: FIG. 33 depicts a schematic for treatment of a xenogeneic mouse graft versus host disease (GVHD) model with a ruxolitinib and activated Treg cells regimen. PBMC=peripheral blood mononuclear cells.
# A xenogeneic mouse graft versus host disease (GVHD) model was treated with a ruxolitinib and activated CB Treg cells regimen, as depicted in FIG. 33. NSG mice underwent sublethal irradiation on day −1 followed by injection of 1×10^7 donor peripheral blood (PB) mononuclear cells (MNCs) on day 0. Oral ruxolitinib at 1 mg daily was fed continuously to the mice in the presence or absence of 1×10^7 CB Treg cells, tagged with CellTrace™ Violet dye (ThermoFisher), administered on days +4, +7, +11, +18. Mice were followed every other day for weight, GVHD score and survival. Serial blood draws were performed to analyze for cell compartment and cytokine assays.
smiles,measurement,value
N#CC[C@H](C1CCCC1)n1cc(-c2ncnc3[nH]ccc23)cn1 [ruxolitinib],CB Treg persistence,improved

# — patent US20260103679A1, “COMPOSITIONS COMPRISING REGULATORY T CELLS AND METHODS OF USING THE SAME” (Cellenkos, Inc., priority 2021, published 2026)
